Data set [1] in a line: log P from HPLC-MS, no method note printed. Format: physicochemical. The settings on record: method not given.
The test system of the next data set is Phaedon cochleariae. In words: Phaedon test (PHAECO spray treatment). Format: in vivo. The settings on record: foliar, application rate 500 g/ha, sprayed Chinese cabbage leaf discs, mustard beetle larvae, 100% = all larvae killed, read-out: effect in %. As to the method: [table] To produce a suitable active ingredient preparation, part by weight of active ingredient is mixed with the stated amounts of solvents and emulsifier, and the concentrate is diluted to the desired concentration with emulsifier-containing water. Discs of Chinese cabbage leaves (Brassica pekinensis) are sprayed with an active ingredient preparation of the desired concentration and, after drying, populated with larvae of the mustard beetle (Phaedon cochleariae). After the desired time, the effect in % is determined. Here, 100% means that all of the beetle larvae have been killed; 0% means that no beetle larvae have been killed.

Data set [2] is described as follows: logP by HPLC on a C18 phase inversion column, EEC Directive 79/831 Annex V.A8, method a) (Agilent 1100, 10-95% acetonitrile in 4.25 min). Format: physicochemical. The settings on record: read-out: logP. The method, boiled down: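 Following EEC Directive 79/831 Annex V.A8, logP is obtained from retention on a 1.8 micron C18 column (50×4.6 mm) at 55 °C and 2.0 ml/min. Elution ran 10→95% acetonitrile (0.1% formic acid) against water (0.09% formic acid) in 4.25 min, held 1.25 min; mass detection used.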

Data set [3] is described as follows: logP by HPLC on a C18 phase inversion column, EEC Directive 79/831 Annex V.A8, method b) (HP1100, 5-95% acetonitrile in 1.70 min). The settings on record: HPLC phase inversion (reversed-phase) C18 column; HPLC method b), eluent acetonitrile/water with formic acid. Format: physicochemical. On the procedure: ^b) Note regarding the determination of the log P values and mass detection: The log P values given were determined in accordance with EEC Directive 79/831 Annex V.A8 by HPLC (High Performance Liquid Chromatography) on a phase inversion column (C18). HP1100; 50*4.6 Zorbax Eclipse Plus C18 1.8 micron; eluent A: acetonitrile (0.1% formic acid); eluent B: water (0.08% formic acid); linear gradient from 5% acetonitrile to 95% acetonitrile in 1.70 min, then 95% acetonitrile for a further 1.00 min; oven temperature 55° C.; flow: 2.0 ml/min. The mass detection is carried out via the mass detector Micromass ZQ2000 from Waters.

The mark [4] stands for this setting: HPLC phase inversion (reversed-phase) C18 column, HPLC method a), eluent acetonitrile/water with formic acid.
The mark [5] stands for this setting: HPLC phase inversion (reversed-phase) C18 column, HPLC, method a).

Structures are written as SMILES.

The compound `O=C(O)c1nccc(Cl)c1C(F)(F)F` [4-Chloro-3-(trifluoromethyl)pyridine-2-carboxylic acid] displayed a chromatographic logP in data set [1] of 1.16. With `Cn1nc(OCC(F)(F)F)c(F)c1C(=O)O` [4-Fluoro-1-methyl-3-(2,2,2-trifluoroethoxy)-1H-pyrazole-5-carboxylic acid], in data set [1], the chromatographic logP amounted to 1.83.

In turn, `Cn1nc(OCC(F)(F)F)c(I)c1C(=O)O` [4-Iodo-1-methyl-3-(2,2,2-trifluoroethoxy)-1H-pyrazole-5-carboxylic acid] yielded a chromatographic logP in data set [1] of 2.11. On to `Cn1nc(OC(F)F)c(I)c1C(=O)O` [4-Iodo-3-(difluoromethoxy)-1-methyl-1H-pyrazole-5-carboxylic acid], for which, in data set [1], the chromatographic logP was found to be 1.64.

For `Cn1nc(C(F)(F)C(F)(F)F)c(C(F)(F)F)c1SCc1ccccc1` [5-(Benzylsulphanyl)-1-methyl-3-(pentafluoroethyl)-4-(trifluoromethyl)-1H-pyrazole], the chromatographic logP in data set [1] was 5. `CCOC(=O)c1cnc(C(F)(F)C(F)(F)F)nc1C(F)(F)C(F)(F)F` [Ethyl 2,4-bis(pentafluoroethyl)pyrimidine-5-carboxylate]: the chromatographic logP in data set [1] worked out at 4.41. In the case of `CCOC(=O)c1sc(C(F)(F)C(F)(F)F)nc1C(F)(F)F` [Ethyl 2-(pentafluoroethyl)-4-(trifluoromethyl)-1,3-thiazole-5-carboxylate], the chromatographic logP in data set [1] was found to be 4.36.

`CCOC(=O)c1c(C(F)(F)F)c(C(C)(C)F)nn1C` [Ethyl 3-(2-fluoropropan-2-yl)-1-methyl-4-(trifluoromethyl)-1H-pyrazole-5-carboxylate] registered a chromatographic logP in data set [1] of 3.55.

`CCOC(=O)c1c(C(F)(F)F)c(C(C)(C)O)nn1C` [Ethyl 3-(2-hydroxypropan-2-yl)-1-methyl-4-(trifluoromethyl)-1H-pyrazole-5-carboxylate]: the chromatographic logP in data set [1] worked out at 2.33. In turn, `CCOC(=O)c1c(C(F)(F)F)c(C(F)F)nn1C` [Ethyl 3-(difluoromethyl)-1-methyl-4-(trifluoromethyl)-1H-pyrazole-5-carboxylate] displayed a chromatographic logP in data set [1] of 3.05. In data set [1], `CCOC(=O)c1c(C(F)(F)F)c(C(O)C2CC2)nn1C` (centres unmarked) [Ethyl 3-[cyclopropyl(hydroxy)methyl]-1-methyl-4-(trifluoromethyl)-1H-pyrazole-5-carboxylate] had a chromatographic logP of 2.38. `CCOC(=O)c1c(C(F)(F)F)c(C2CC2)nn1C` [Ethyl 3-cyclopropyl-1-methyl-4-(trifluoromethyl)-1H-pyrazole-5-carboxylate] returned a chromatographic logP in data set [1] of 3.66. Still for that read-out and setting: the same measure for `CCOC(=O)c1c(I)c(C2CC2)nn1C` [Ethyl 3-cyclopropyl-4-iodo-1-methyl-1H-pyrazole-5-carboxylate]: 3.56. In data set [1], `CCOC(=O)c1c(C(F)(F)F)c(C=O)nn1C` [Ethyl 3-formyl-1-methyl-4-(trifluoromethyl)-1H-pyrazole-5-carboxylate] came in with a chromatographic logP of 2.4.

With `CCOC(=O)c1cnc(C(F)(F)F)nc1-c1ccccn1` [Ethyl 4-(pyridin-2-yl)-2-(trifluoromethyl)pyrimidine-5-carboxylate], in data set [1], the chromatographic logP turned out to be 3.09. `CCOC(=O)c1c(C(F)(F)F)c(CO)nn1C` [Ethyl-3-(hydroxymethyl)-1-methyl-4-(trifluoromethyl)-1H-pyrazole-5-carboxylate] gave a chromatographic logP in data set [1] of 1.74. Consider `O=C(NC1CC1)c1cc(NC(=O)c2cnc(Cl)nc2C(F)(F)F)ccc1Cl` [Ib-1, 2-chloro-N-[4-chloro-3-(cyclopropylcarbamoyl)phenyl]-4-(trifluoromethyl)pyrimidine-5-carboxamide], for which, in the data set on Phaedon cochleariae, the pest or weed control at 500 g/ha was not below 80%. The chromatographic logP in data set [2] (setting [4]) came to 2.36. Turning to `O=C(NC1CC1)c1cc(NC(=O)c2cnc(OCC(F)(F)F)nc2C(F)(F)F)ccc1Cl` [Ib-2], in the data set on Phaedon cochleariae, the pest or weed control at 500 g/ha is not below 80%. Also, the chromatographic logP in data set [2] (setting [4]) was 2.76.

As to `O=C(NC1CC1)c1cc(NC(=O)c2cnc(C(F)(F)C(F)(F)F)nc2C(F)F)ccc1Cl` [Ib-27, N-[4-Chloro-3-(cyclopropylcarbamoyl)phenyl]-4-(difluoromethyl)-2-(pentafluoroethyl)pyrimidine-5-carboxamide], in the data set on Phaedon cochleariae, the pest or weed control at 500 g/ha is not below 80%. Besides, the chromatographic logP in data set [2] (setting [4]) worked out at 2.92. Take `O=C(NC1CC1)c1cc(NC(=O)c2cnc(OCC(F)(F)F)cc2C(F)(F)F)ccc1Cl` [Ij-1, N-[4-Chloro-3-(cyclopropylcarbamoyl)phenyl]-6-(2,2,2-trifluoroethoxy)-4-(trifluoromethyl)pyridine-3-carboxamide]: the pest or weed control at 500 g/ha in the data set with Phaedon cochleariae is not below 80%. Further, the chromatographic logP in data set [2] (setting [4]) is 3.02. On to `Cn1nc(C(F)(F)C(F)(F)F)c(C(F)(F)F)c1C(=O)Nc1ccc(Cl)c(C(=O)NC2CC2)c1` [Ik-1, N-[4-Chloro-3-(cyclopropylcarbamoyl)phenyl]-1-methyl-3-(pentafluoroethyl)-4-(trifluoromethyl)-1H-pyrazole-5-carboxamide], for which, in the data set with Phaedon cochleariae, the pest or weed control at 500 g/ha is not below 80%. The chromatographic logP in data set [2] (setting [4]) and in data set [2] (setting [5]) was 3.34 throughout. `C#CCNC(=O)c1cc(NC(=O)c2c(C(F)(F)F)c(C(F)(F)C(F)(F)F)nn2C)ccc1Cl` [Ik-3, N-[4-Chloro-3-(prop-2-yn-1-ylcarbamoyl)phenyl]-1-methyl-3-(pentafluoroethyl)-4-(trifluoromethyl)-1H-pyrazole-5-carboxamide]: in the data set on Phaedon cochleariae, the pest or weed control at 500 g/ha is not below 80%. Besides, the chromatographic logP in data set [3] was determined as 3.11. Regarding `Cn1nc(C(F)(F)C(F)(F)F)c(I)c1C(=O)Nc1ccc(Cl)c(C(=O)NC2CC2)c1` [Ik-4, N-[4-Chloro-3-(cyclopropylcarbamoyl)phenyl]-1-methyl-3-(pentafluoroethyl)-4-iodo-1H-pyrazole-5-carboxamide], the pest or weed control at 500 g/ha in the data set with Phaedon cochleariae is not below 80%. Moreover, the chromatographic logP in data set [2] (setting [4]) came out at 3.16; in data set [2] (setting [5]) it was 3.15.

In the case of `C=Cc1c(C(F)(F)C(F)(F)F)nn(C)c1C(=O)Nc1ccc(Cl)c(C(=O)NC2CC2)c1` [Ik-5, N-[4-Chloro-3-(cyclopropylcarbamoyl)phenyl]-1-methyl-3-(pentafluoroethyl)-4-ethenyl-1H-pyrazol-5-carboxamide], in the data set with Phaedon cochleariae, the pest or weed control at 500 g/ha was not below 80%. The chromatographic logP in data set [2] (setting [4]) and in data set [2] (setting [5]) was 3.11 in each case. In the case of `COC(=O)c1cc(OCC(F)(F)F)nn1C` [Methyl 1-methyl-3-(2,2,2-trifluoroethoxy)-1H-pyrazole-5-carboxylate], the chromatographic logP in data set [1] worked out at 2.61.

Regarding `COC(=O)c1cc(-c2ccc(C(F)(F)F)cc2)nn1C` [Methyl 1-methyl-3-[4-(trifluoromethyl)phenyl]-1H-pyrazole-5-carboxylate], in data set [1], the chromatographic logP amounted to 3.82. Take `COC(=O)c1c(C(F)(F)F)c(-c2ccc(C(F)(F)F)cc2)nn1C` [Methyl 1-methyl-4-(trifluoromethyl)-3-[4-(trifluoromethyl)phenyl]-1H-pyrazole-5-carboxylate]: the chromatographic logP in data set [1] was found to be 4.14. Compound `COC(=O)c1c(I)c(OC(F)F)nn1C` [Methyl 3-(difluoromethoxy)-4-iodo-1-methyl-1H-pyrazole-5-carboxylate] registered a chromatographic logP in data set [1] of 2.69. As for `COC(=O)c1c(Br)c(OCC(F)(F)F)nn1C` [Methyl 4-bromo-1-methyl-3-(2,2,2-trifluoroethoxy)-1H-pyrazole-5-carboxy late], the chromatographic logP in data set [1] is 3.14.

`COC(=O)c1c(Br)c(OC(F)F)nn1C` [Methyl 4-bromo-3-(difluoromethoxy)-1-methyl-1H-pyrazole-5-carboxylate] displayed a chromatographic logP in data set [1] of 2.62. The same measure, in the same setting: the result for `COC(=O)c1c(Cl)c(OCC(F)(F)F)nn1C` [Methyl 4-chloro-1-methyl-3-(2,2,2-trifluoroethoxy)-1H-pyrazole-5-carboxylate] reads 3.08; that for `COC(=O)c1c(Cl)c(OC(F)F)nn1C` [Methyl 4-chloro-3-(difluoromethoxy)-1-methyl-1H-pyrazole-5-carboxylate], 2.57; that for `COC(=O)c1c(F)c(OCC(F)(F)F)nn1C` [Methyl 4-fluoro-1-methyl-3-(2,2,2-trifluoroethoxy)-1H-pyrazole-5-carboxylate], 2.79.

`COC(=O)c1c(I)c(OCC(F)(F)F)nn1C` [Methyl 4-iodo-1-methyl-3-(2,2,2-trifluoroethoxy)-1H-pyrazole-5-carboxylate] had a chromatographic logP in data set [1] of 3.17. `COC(=O)c1c(I)c(-c2ccc(C(F)(F)F)cc2)nn1C` [Methyl 4-iodo-1-methyl-3-[4-(trifluoromethyl)phenyl]-1H-pyrazole-5-carboxylate]: the chromatographic logP in data set [1] came to 4.23. `COC(=O)c1cc(OC(F)F)nn1C` [Methyl-3-(difluoromethoxy)-1-methyl-1H-pyrazole-5-carboxylate] registered a chromatographic logP in data set [1] of 2.04.

The record behind these values is patent US8946234B2, “Halogen-substituted compounds” (Bayer CropScience AG, priority 2008, dated 2015).
